What was measured:
HCMV Strain AD169 = experiment: Viral qPCR assay, HCMV; type: cell-based, Human cytomegalovirus; details: Human betaherpesvirus 5, AD169, MRC5, 72 h, MRC-5 cells, 0.05-0.1 pfu/cell, growth media or 50% fetal bovine serum, viral genome copies by qPCR, read-out: CMV Cell (EC50)
How it was run: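 HCMV AD169 at 0.05-0.1 pfu/cell infected MRC-5 cells, added to 10-point 3-fold compound dilutions, in growth medium or medium with 50% FBS; ~72 h at 37°C. Viral genome copies by TaqMan qPCR against plasmid standard curve, normalized to DMSO and uninfected controls; EC50 from 4-parameter fit.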

[1] = target: T1, Human cytomegalovirus DNA polymerase (Human cytomegalovirus, UniProt P08546); experiment: CMV polymerase assay (AlphaLISA); type: biochemical; details: HCMV polymerase 0.2 nM; 30 min pre-incubation; 60 min at 37° C.; read-out: CMV (IC50)
T1 construct: made in house; host or cells: SF21 insect cells (baculovirus vector)
How it was run: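 Baculovirus-expressed polymerase (HCMV 0.2 nM, VZV 0.4 nM) preincubated 30 min with compound, then reacted 60 min at 37 °C with 1.6 nM DIG-primer/59-mer template and low-nM dNTPs including 0.8 nM biotin-dUTP. Incorporation detected by AlphaLISA; IC50 from a 4-parameter fit normalized to DMSO and pre-quenched controls.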

HSV-1 Strain F = experiment: Viral qPCR assay, HSV-1; type: cell-based, Herpes Simplex Virus type 1; details: Human alphaherpesvirus 1, 72 h, Vero or MRC5 cells, 0.0005-0.004 pfu/cell, growth medium, viral genome copies by qPCR, read-out: HSV1 Cell (EC50)
How it was run: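 HSV-1 strain F at 0.0005–0.004 pfu/cell infected Vero or MRC5 cells, which were added to a 10-point 3-fold compound dilution and cultured ~72 h at 37 °C. Viral genomes in the lysates were quantified by TaqMan qPCR against a plasmid standard curve, in some runs normalized to cellular PPIA. EC50 came from a 4-parameter fit of % effect.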

VZV = experiment: Viral qPCR assay, VZV; type: cell-based, varicella zoster virus; details: Human alphaherpesvirus 3, 72 h, MeWo or MRC5 cells, 0.04-0.1 pfu/cell, growth medium, viral genome copies by qPCR
How it was run: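 VZV strain Street at 0.04-0.1 pfu/cell infected MeWo or MRC5 cells added to 10-point, 3-fold compound dilutions; ~72 h at 37° C. Viral genome copies by TaqMan qPCR against plasmid standard curve, sometimes normalised to PPIA, scaled between uninfected and DMSO-infected controls; EC50 from 4-parameter fit.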

[2] = target: T2, varicella zoster virus DNA polymerase (Varicella-zoster virus, UniProt P09252); experiment: VZV polymerase assay (AlphaLISA); type: biochemical; details: VZV polymerase 0.4 nM; 30 min pre-incubation; 60 min at 37° C.
T2 construct: made in house; host or cells: SF21 insect cells (baculovirus vector)
Experimental: Human cytomegalovirus and varicella zoster virus DNA polymerases were expressed via baculovirus vector in SF21 cells and purified. Heterodimeric nucleic acid substrate used in the herpesvirus polymerase reactions was generated by annealing a 59-mer template to a 17-mer digoxigenin-labeled primer. Polymerase (HCMV final concentration of 0.2 nM; VZV final concentration of 0.4 nM) was combined with an inhibitor compound or DMSO in assay buffer (10 mM HEPES, pH 7.5, 25 mM KCl, 25 mM NaCl, 5 mM MgCl2, 5% glycerol, 0.67 mg/ml bovine serum albumin, and 1 mM tris(2-carboxyethyl)phosphine), and this mixture was pre-incubated for 30 minutes at room temperature in 384-well microtiter plates. The polymerization reaction was initiated by the addition of template/primer substrate (final concentration: 1.6 nM), and dNTPs (final concentration: 24 nM dCTP, 24 nMdGTP, 16 nM dATP, 16 nM dTTP, and 0.8 nM biotin-dUTP). After 60 min incubation at 37° C., reactions were terminated with quench buffer (25 mM HEPES pH 7.5, 100 mM NaCl, 0.25% Tween-20, 12 mM EDTA, and 1 mg/ml bovine serum albumin). Incorporation of biotinylated UTP was detected with 2.5-5 ug/ml anti-DIG AlphaLISA acceptor beads and 5-10 ug/ml streptavidin AlphaLISA donor beads (PerkinElmer). Compound effects were normalized to the window defined by the controls (DMSO only and pre-quenched wells) and were fit using a 4-parameter algorithm to report an IC50.

T1 sequence (P08546 whole entry): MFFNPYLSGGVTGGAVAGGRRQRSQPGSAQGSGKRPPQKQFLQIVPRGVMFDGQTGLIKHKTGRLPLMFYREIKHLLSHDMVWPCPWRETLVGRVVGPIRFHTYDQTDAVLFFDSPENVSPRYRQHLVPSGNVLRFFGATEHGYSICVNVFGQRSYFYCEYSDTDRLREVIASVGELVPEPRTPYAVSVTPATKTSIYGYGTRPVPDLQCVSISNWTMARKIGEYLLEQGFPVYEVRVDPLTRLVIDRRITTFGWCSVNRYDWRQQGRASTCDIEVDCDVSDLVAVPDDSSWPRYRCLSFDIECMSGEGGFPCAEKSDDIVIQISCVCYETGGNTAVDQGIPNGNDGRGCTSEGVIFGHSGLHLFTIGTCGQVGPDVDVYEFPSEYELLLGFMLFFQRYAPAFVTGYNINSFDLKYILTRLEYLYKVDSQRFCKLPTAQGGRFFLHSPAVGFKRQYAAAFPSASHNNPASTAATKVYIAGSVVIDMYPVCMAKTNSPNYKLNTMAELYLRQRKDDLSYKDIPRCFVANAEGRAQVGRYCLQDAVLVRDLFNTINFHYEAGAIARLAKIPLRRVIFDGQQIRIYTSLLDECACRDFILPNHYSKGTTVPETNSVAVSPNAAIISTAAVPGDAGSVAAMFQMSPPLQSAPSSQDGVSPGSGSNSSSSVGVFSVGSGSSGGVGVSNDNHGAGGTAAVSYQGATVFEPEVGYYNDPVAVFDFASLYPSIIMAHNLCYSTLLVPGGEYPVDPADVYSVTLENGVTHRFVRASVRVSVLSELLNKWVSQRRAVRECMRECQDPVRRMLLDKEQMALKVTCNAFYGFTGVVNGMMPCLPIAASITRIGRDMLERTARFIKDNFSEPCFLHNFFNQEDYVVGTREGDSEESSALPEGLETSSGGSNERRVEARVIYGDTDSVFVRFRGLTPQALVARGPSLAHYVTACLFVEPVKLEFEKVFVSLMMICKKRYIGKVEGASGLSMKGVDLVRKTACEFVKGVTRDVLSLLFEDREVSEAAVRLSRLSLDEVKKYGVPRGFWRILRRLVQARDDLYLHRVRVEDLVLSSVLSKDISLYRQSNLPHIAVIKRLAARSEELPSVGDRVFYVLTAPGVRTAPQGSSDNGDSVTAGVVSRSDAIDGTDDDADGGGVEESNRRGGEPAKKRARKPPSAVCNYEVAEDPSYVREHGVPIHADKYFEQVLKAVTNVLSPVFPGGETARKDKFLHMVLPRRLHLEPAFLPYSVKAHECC
T2 sequence (P09252 whole entry): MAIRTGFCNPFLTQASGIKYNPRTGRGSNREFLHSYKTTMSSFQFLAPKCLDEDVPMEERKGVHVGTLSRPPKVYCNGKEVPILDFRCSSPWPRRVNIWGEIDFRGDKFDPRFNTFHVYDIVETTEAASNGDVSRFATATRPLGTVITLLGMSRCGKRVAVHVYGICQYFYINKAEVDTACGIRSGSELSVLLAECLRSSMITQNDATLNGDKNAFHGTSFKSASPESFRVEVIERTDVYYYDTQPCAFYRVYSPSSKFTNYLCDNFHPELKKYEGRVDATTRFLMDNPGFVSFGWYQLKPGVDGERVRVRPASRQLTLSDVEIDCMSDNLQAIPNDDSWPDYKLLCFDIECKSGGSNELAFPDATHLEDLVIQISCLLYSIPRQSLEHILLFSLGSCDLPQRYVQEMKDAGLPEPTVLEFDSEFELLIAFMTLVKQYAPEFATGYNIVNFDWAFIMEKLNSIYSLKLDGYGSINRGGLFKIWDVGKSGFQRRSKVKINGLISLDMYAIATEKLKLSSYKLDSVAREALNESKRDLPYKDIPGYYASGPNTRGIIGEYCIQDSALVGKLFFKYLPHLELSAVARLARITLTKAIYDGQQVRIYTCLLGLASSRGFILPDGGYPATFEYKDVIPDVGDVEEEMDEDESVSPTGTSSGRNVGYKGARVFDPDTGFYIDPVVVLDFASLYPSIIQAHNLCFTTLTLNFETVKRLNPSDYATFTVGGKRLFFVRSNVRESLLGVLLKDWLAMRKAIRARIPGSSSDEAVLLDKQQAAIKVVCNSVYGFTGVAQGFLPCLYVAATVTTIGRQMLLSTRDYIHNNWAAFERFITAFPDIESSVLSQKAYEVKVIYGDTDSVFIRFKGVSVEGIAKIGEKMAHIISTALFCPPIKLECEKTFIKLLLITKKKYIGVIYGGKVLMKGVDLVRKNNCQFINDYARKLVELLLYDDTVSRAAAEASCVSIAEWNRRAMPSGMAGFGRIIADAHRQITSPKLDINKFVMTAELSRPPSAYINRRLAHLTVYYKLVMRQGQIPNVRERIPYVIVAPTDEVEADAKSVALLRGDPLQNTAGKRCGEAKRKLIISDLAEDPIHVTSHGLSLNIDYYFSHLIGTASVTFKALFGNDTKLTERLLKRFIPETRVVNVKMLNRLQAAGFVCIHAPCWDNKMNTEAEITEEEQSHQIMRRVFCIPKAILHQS

| Compound | IC50 [1] [nM] | IC50 [2] [nM] | EC50 (HCMV Strain AD169) [nM] | EC50 (HSV-1 Strain F) [nM] | EC50 (VZV) [nM] |
| --- | --- | --- | --- | --- | --- |
| COc1nc(-c2cnn(C(F)F)c2)c(O[C@H]2CCN3C(=O)OC[C@@H]3C2)cc1C(=O)NCc1ccc(C#N)c(F)c1 [Compound 58] | 2.95 | 0.259 | 59.3 | 63.4 | 103 |
| COc1nc(-c2nc(C)ns2)c(O[C@H]2CCN3C(=O)OC[C@@H]3C2)cc1C(=O)NCc1ccc(Cl)cc1 [Compound 61] | 1.44 | 0.0412 | 60.1 | 49 | 70.8 |
| COc1nc(-c2cnn(C(F)F)c2)c(O[C@H]2CCN3C(=O)OC[C@@H]3C2)cc1C(=O)NCc1ccc(Cl)cc1 [Compound 4] | 7.52 | 0.715 | 146 | 105 | 141 |
| COc1nc(N2CCC(C(C)(C)N)C2)c(O[C@H]2CCN3C(=O)OC[C@@H]3C2)cc1C(=O)NCc1ccc(Cl)cc1 (single isomer, unassigned) [Compound 71] | 22.8 | 3.54 | 221 | 396 | 468 |

More lines, main results first:

| IC50 [1] [nM] | IC50 [2] [nM] | Compound | EC50 (HCMV Strain AD169) [nM] | EC50 (HSV-1 Strain F) [nM] | EC50 (VZV) [nM] |
| --- | --- | --- | --- | --- | --- |
| 2.08 | 6.48 | COc1nc(-c2cnn(C(F)F)c2)c(O[C@H]2CCN3C(=O)OC[C@@H]3C2)cc1C(=O)NCc1ccc(C#N)cc1 [Compound 56] | 102 | 36.3 | 123 |
| 8.81 | 8.24 | COc1nc(-c2ccnnc2)c(O[C@H]2CCN3C(=O)OC[C@@H]3C2)cc1C(=O)NCc1ccc(Cl)cc1 [Compound 37] | 180 | 144 | 178 |
| 4.69 | 1.53 | COc1nc(-c2cnc(N)c(F)c2)c(O[C@H]2CCN3C(=O)OC[C@@H]3C2)cc1C(=O)NCc1ccc(Cl)cc1 [Compound 46] | 165 | 51.6 | 121 |
